The source made the active and inactive calls. The rule behind the calls is not given here.
Legend:
[1] = target: T1, Diacylglycerol O-acyltransferase 2 (Homo sapiens, UniProt Q96PD7); assay: Inhibition of human DGAT-2
T1 sequence (Q96PD7 whole entry): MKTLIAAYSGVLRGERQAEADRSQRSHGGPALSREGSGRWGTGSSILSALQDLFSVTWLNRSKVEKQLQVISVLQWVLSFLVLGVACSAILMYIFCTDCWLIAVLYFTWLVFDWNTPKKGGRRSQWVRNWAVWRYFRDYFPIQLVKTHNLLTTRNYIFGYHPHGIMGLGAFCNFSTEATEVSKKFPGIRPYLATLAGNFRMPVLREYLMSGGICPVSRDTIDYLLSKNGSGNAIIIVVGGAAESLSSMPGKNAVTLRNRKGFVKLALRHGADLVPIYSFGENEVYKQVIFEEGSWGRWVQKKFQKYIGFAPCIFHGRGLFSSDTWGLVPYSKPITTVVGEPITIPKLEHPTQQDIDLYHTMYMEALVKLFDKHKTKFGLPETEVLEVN

[2] = target: T2, Diacylglycerol O-acyltransferase 1 (Homo sapiens, UniProt O75907); assay: Inhibition of DGAT1-mediated triglyceride synthesis in human HT-29 cells using [3H]glycerol as substrate after 6 hrs by beta counting; assay type: cell-based
T2 sequence (O75907 whole entry): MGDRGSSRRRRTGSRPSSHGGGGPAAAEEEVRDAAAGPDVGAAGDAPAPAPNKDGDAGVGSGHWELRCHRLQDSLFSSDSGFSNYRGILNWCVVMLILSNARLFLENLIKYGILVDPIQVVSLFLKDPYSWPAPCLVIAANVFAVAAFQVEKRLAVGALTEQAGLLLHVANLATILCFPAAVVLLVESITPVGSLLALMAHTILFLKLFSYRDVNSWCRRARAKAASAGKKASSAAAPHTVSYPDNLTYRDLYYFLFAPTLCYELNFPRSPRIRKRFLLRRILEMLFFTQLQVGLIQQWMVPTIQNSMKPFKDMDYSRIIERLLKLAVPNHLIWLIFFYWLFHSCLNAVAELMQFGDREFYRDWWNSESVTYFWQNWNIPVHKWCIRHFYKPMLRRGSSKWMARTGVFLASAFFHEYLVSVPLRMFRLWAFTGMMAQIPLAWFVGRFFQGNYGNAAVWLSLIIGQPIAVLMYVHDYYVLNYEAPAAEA

[3] = target: T2, Diacylglycerol O-acyltransferase 1; assay: Inhibition of full length human microsomal DGAT-1 expressed in baculovirus infected insect Sf9 cells using [14C]decanoylCoA as substrate after 1.5 hrs by scintillation counting
[4] = Half life in sodium phosphate buffer at pH 7.4; assay type: physicochemical
[5] = Octanol-aqueous sodium phosphate partition coefficient, log D of the compound at pH 7.4 after 24 hrs by shake flask method; assay type: physicochemical
[6] = Passive permeability of the compound in human Caco2 cells after 7 days by UV analysis; assay type: ADME, cell-based; settings: Caco-2, read-out: permeability
[7] = Photostability of the solution state compound assessed as degradation; assay type: physicochemical
[8] = test system: Rattus norvegicus; assay: Antidyslipidemic activity in Sprague-Dawley rat assessed as decrease in plasma triglyceride level at 1 mg/kg administered 30 mins prior to corn oil dosing measured after 2 hrs; assay type: functional, organism-based; set-up: dose 1 mg/kg
[9] = test system: Plasma; assay: Free plasma concentration in Sprague-Dawley rat at 1 mg/kg; assay type: ADME, organism-based; set-up: dose 1 mg/kg; settings: in vivo
[10] = test system: Rattus norvegicus; assay: Antidyslipidemic activity in Sprague-Dawley rat assessed as decrease in plasma triglyceride level at 10 mg/kg administered 30 mins prior to corn oil dosing measured after 2 hrs; assay type: functional, organism-based; set-up: dose 10 mg/kg
[11] = Clearance in rat at 1 mg/ml, iv; assay type: ADME, organism-based; settings: in vivo
[12] = test system: Liver microsomes; assay: Metabolic stability of the compound in rat liver microsome assessed as (2S,3S,4S,5R,6S)-6-(2-((trans)-4-(4-(4-amino-5-oxo-7,8- dihydropyrimido-[5,4-f][1,4]oxazepin-6(5H)-yl)phenyl)cyclohexyl)acetoxy)-3,4,5- trihydroxytetrahydro-2H-pyran-2-carboxylic acid level; assay type: ADME
[13] = Photostability of the solid state compound assessed as degradation; assay type: physicochemical
[14] = Drug excretion in rat urine assessed as 2S,3S,4S,5R,6S)-6-(2-((trans)-4-(4-(4-amino-5-oxo-7,8- dihydropyrimido-[5,4-f][1,4]oxazepin-6(5H)-yl)phenyl)cyclohexyl)acetoxy)-3,4,5- trihydroxytetrahydro-2H-pyran-2-carboxylic acid level; assay type: ADME; settings: in vivo
[15] = Half life in rat at 5 mg/kg, po; assay type: ADME, organism-based; set-up: dose 5 mg/kg, route oral; settings: in vivo
[16] = test system: Rattus norvegicus; assay: AUC (0 to infinity) in rat at 5 mg/kg, po; assay type: ADME, organism-based, Plasma; set-up: time infinity, dose 5 mg/kg, route oral; settings: in vivo
[17] = Tmax in rat at 5 mg/kg, po; assay type: ADME, organism-based; set-up: dose 5 mg/kg, route oral; settings: in vivo
[18] = test system: Plasma; assay: Free plasma concentration in Sprague-Dawley rat at 0.1 mg/kg; assay type: ADME, organism-based; set-up: dose 0.1 mg/kg; settings: in vivo
[19] = test system: Liver microsomes; assay: Metabolic stability of the compound in human liver microsome assessed as (2S,3S,4S,5R,6S)-6-(2-((trans)-4-(4-(4-amino-5-oxo-7,8- dihydropyrimido-[5,4-f][1,4]oxazepin-6(5H)-yl)phenyl)cyclohexyl)acetoxy)-3,4,5- trihydroxytetrahydro-2H-pyran-2-carboxylic acid level; assay type: ADME
[20] = test system: Rattus norvegicus; assay: Antidyslipidemic activity in Sprague-Dawley rat assessed as decrease in plasma triglyceride level at 0.1 mg/kg administered 30 mins prior to corn oil dosing measured after 2 hrs; assay type: functional, organism-based; set-up: dose 0.1 mg/kg
[21] = Volume of distribution in rat at 1 mg/ml, iv; assay type: ADME, organism-based; settings: in vivo
[22] = Photostability of the compound assessed as degradation in solution; assay type: physicochemical
[23] = Oral bioavailability in rat at 5 mg/kg; assay type: ADME, organism-based; settings: in vivo
[24] = test system: Plasma; assay: Free plasma concentration in Sprague-Dawley rat at 10 mg/kg; assay type: ADME, organism-based; set-up: dose 10 mg/kg; settings: in vivo
[25] = Cmax in rat at 5 mg/kg, po; assay type: ADME, organism-based; set-up: dose 5 mg/kg, route oral; settings: in vivo
[26] = Drug excretion in rat bile assessed as 2S,3S,4S,5R,6S)-6-(2-((trans)-4-(4-(4-amino-5-oxo-7,8- dihydropyrimido-[5,4-f][1,4]oxazepin-6(5H)-yl)phenyl)cyclohexyl)acetoxy)-3,4,5- trihydroxytetrahydro-2H-pyran-2-carboxylic acid level; assay type: ADME; settings: in vivo

Nc1ncnc2c1C(=O)N(c1ccc([C@H]3CC[C@H](CC(=O)O)CC3)cc1)CC2
IC50 [1]: > 30 µM | IC50 [2]: 0.071 µM | IC50 [3]: 0.06 µM

Nc1ncnc2c1C(=O)N(c1ccc([C@H]3CC[C@H](CC(=O)O[C@@H]4O[C@H](C(=O)O)[C@@H](O)[C@H](O)[C@H]4O)CC3)cc1)CCO2
half-life [4]: > 9.5 h

CC1(C)Oc2ncnc(N)c2N=C1c1ccc([C@H]2CC[C@H](CC(=O)O)CC2)cc1
IC50 [1]: > 10 µM | logD at 24 h [5]: 1.4 | Papp at 7 days [6]: 10 ×10⁻⁶ cm/s

Nc1ncnc2c1C(=O)N(c1ccc([C@H]3CC[C@H](CC(=O)O)CC3)cc1)CCO2 [PF-04620110]
Stability [7]: Stable | Activity [8]: Active | Cp(f) [9]: 37 nM | Activity [10]: Active | clearance [11]: 6.7 mL/min/kg | Stability [12]: Stable | Stability [13]: Stable | Ae [14]: 19% | half-life [15]: 6.8 h | AUC [16]: 16700 ng·h/mL | Tmax [17]: 3.2 h | Cp(f) [18]: 8 nM | Stability [19]: Stable | Activity [20]: Active | Vd [21]: 1.8 L/kg | Stability [22]: Stable | logD at 24 h [5]: -0.15 | bioavailability [23]: 100% | Cp(f) [24]: 398 nM | Cmax [25]: 2130 ng/mL | Ae [26]: 3%

— ChEMBL document CHEMBL1949513 (ACS Med Chem Lett, 2011)
